From PubChem BioAssay (NCI)
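The compound was tested at five concentrations on cells cultured in 96-well plates, with a 48-hour exposure period. TGI: concentration producing complete growth inhibition.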

Key:
Experiment in all cases: NCI anticancer screen, dose series, 48 h
NCI/ADR-RES ovarian = test system: NCI/ADR-RES ovarian
UACC-62 melanoma = test system: UACC-62 melanoma
CCRF-CEM leukemia = test system: CCRF-CEM leukemia
OVCAR-8 ovarian = test system: OVCAR-8 ovarian
RPMI-8226 leukemia = test system: RPMI-8226 leukemia
MOLT-4 leukemia = test system: MOLT-4 leukemia
UACC-257 melanoma = test system: UACC-257 melanoma
SNB-19 CNS = test system: SNB-19 CNS
CAKI-1 renal = test system: CAKI-1 renal
KM12 colon = test system: KM12 colon
T-47D breast = test system: T-47D breast
SR leukemia = test system: SR leukemia

Row | Structure (SMILES) | TGI (NCI/ADR-RES ovarian) [µM] | TGI (UACC-62 melanoma) [µM] | TGI (CCRF-CEM leukemia) [µM] | TGI (OVCAR-8 ovarian) [µM] | TGI (RPMI-8226 leukemia) [µM] | TGI (MOLT-4 leukemia) [µM] | TGI (UACC-257 melanoma) [µM] | TGI (SNB-19 CNS) [µM] | TGI (CAKI-1 renal) [µM] | TGI (KM12 colon) [µM] | TGI (T-47D breast) [µM] | TGI (SR leukemia) [µM]
1 | CSc1nc(-c2ccc(Cl)cc2)c(C#N)c(=O)[nH]1 | > 100 | > 100 | > 100 | > 100 | > 100 | > 100 | > 100 | > 100 | > 100 | > 100 | > 100 | 
2 | CCOC(=O)c1c(NC(=O)c2ccc(Br)cc2)sc2c1CCCC2 |  | > 100 | > 100 | > 100 | > 100 | > 100 | > 100 | > 100 | > 100 | > 100 | > 100 | > 100
3 | Cn1nc(C(=O)N2CC(CCl)c3c2cc([N+](=O)[O-])c2ccccc32)cc1NC(=O)Nc1cc(C(=O)N2CC(CCl)c3c2cc([N+](=O)[O-])c2ccccc32)nn1C (centres undefined) | > 100 | > 100 |  |  | > 100 | > 100 | > 100 | > 100 | > 100 | > 100 | > 100 | 
4 | CC(C)(C)N=c1n(C(C)(C)C)oc(=O)n1-c1ccccc1 | > 50 | > 50 | > 50 | > 50 | > 50 | > 50 | > 50 | > 50 | > 50 | > 50 |  | > 50
5 | CSc1nc(C)c(CCCl)c(Cl)n1 | > 100 | > 100 | > 100 | > 100 |  | > 100 | > 100 | > 100 | > 100 |  | > 100 | 
6 | Cc1nc(Nc2nc3ccccc3[nH]2)[nH]c(=O)c1CCO | > 100 | > 100 | > 100 | > 100 |  | > 100 | > 100 | > 100 | > 100 | > 100 | > 100 | > 100
7 | Cc1ccc(F)c2c(=O)cc(-c3ccccc3)[nH]c12 |  | > 100 | > 100 | > 100 | > 100 | > 100 | > 100 |  | > 100 | > 100 |  | > 100
8 | CC(=O)C1C(=O)C(=O)N(c2ccc(Br)cc2)C1=O (centres undefined) | > 100 | > 100 | > 100 | > 100 |  | > 100 | > 100 | > 100 | > 100 | > 100 |  | 
9 | Nc1cc(N)c(N=Nc2cccc3c(S(=O)(=O)O)cccc23)cc1N=Nc1cc([N+](=O)[O-])ccc1O | 93.2 | 59.2 |  | > 100 | > 100 | > 100 | 74.5 | > 100 | > 100 | > 100 | > 100 | 72.6
10 | C=C(CC)C[C@@H]1C[C@]2(C(=O)OC)c3[nH]c4ccccc4c3CCN2C1=O | 51.1 | 36.2 |  | > 100 |  | > 100 | 41.9 | > 100 | 48.6 | 58.9 | > 100 | > 100
11 | CCCCCCC(=O)OC[n+]1cccc(-c2c(COC(=O)NC(C)C)c(COC(=O)NC(C)C)c3n2CCC3)c1 | > 100 | 72.9 | > 66.5 | > 100 | > 100 | > 80.7 | > 100 | > 100 | 47.8 | > 100 | > 100 | 
12 | O=C1Nc2ccc(Br)cc2/C1=C/C(=O)c1ccccc1 |  | 32.9 | 8.36 | 5.31 | > 23.6 | > 26.4 | 29 | 37.7 | 20 | 23 | 32.1 | > 24.9
13 | COc1ccccc1Cn1[nH]c(=O)c2cc([N+](=O)[O-])ccc21 | > 100 | > 100 | > 100 | > 100 | > 100 | > 100 | > 100 | > 100 | > 100 | > 100 |  | > 100
14 | COC(=O)C1=NN2c3ccccc3CN([C@@H](C)c3ccccc3)C(=O)[C@H]2[C@@H]1C | > 100 | > 100 | > 100 | > 100 |  | > 100 | > 100 | > 100 | > 100 | > 100 | 88.3 | > 100
15 | CC(C)c1cccc(C(C)C)c1NC(=O)C(=O)C1SC(=S)NC1=O (centres undefined) |  | > 100 | > 100 | > 100 | > 100 | > 100 | > 100 | > 100 | > 100 | > 100 |  | > 100
16 | CC1=C(C(=O)NC(C)(C)C)CC(C(=O)NC(C)(C)C)C(C)N1 (centres undefined) | > 100 | > 100 | > 100 | > 100 | > 100 | > 100 | > 100 | > 100 | > 100 | > 100 | > 100 | 
17 | O=C(Nc1ccc(S(=O)(=O)Nc2ncccn2)cc1)c1c2ccccc2nc2ccccc12 | > 100 | > 100 |  | > 100 | > 100 | > 100 | > 100 | > 100 | > 100 | > 100 |  | > 100
18 | Cc1ccccc1NC(=O)CSc1nnc(Cc2ccccc2)o1 |  | > 100 | > 100 | > 100 | > 100 | > 100 | > 100 |  |  | > 100 |  | 
19 | CCSC12CC3c4cccc5c4C(CN5C(=O)c4ccccc4)CC3(O1)N(C)C2=O (centres undefined) | > 100 | 67.9 | > 100 | > 100 |  | 62.6 | > 100 | > 100 | > 100 | > 100 | > 100 | 77.6
